In paper PMC12040169 (PLOS Biology, 2025) one finds viability data, which are given here for 78 compounds.

This data set in a line: in vitro. The following applies: human, hela cells, % viability.

The structures appear in SMILES notation.

As to `COc1ccc(C(=O)OC(C)(C)C)c(-c2cncc(N3CCN(CCO)CC3)n2)c1` [CBK037239], the viability at 28.5 h, 10 µM was 101%.

Take `CC(NC(=O)c1ccccc1Cn1cccn1)c1ccccn1` (stereo not drawn) [CBK281374]: the viability at 28.5 h, 10 µM came to 86.3%. As for `Cc1nc(-c2ccc(NC(=O)C3CC=CCC3C(=O)O)cc2)cs1` (stereo not drawn) [CBK299815], the figure is 99.4%. As for `c1ccc2c(CNCCN3CCOCC3)cccc2c1` [CBK278156C], the figure is 90.9%; as for `O=C(Nc1ncccc1Cl)c1ccc(F)cc1` [CBK288215], 93.1%; as for `NS(=O)(=O)c1ccc(NC(=O)CCCOc2ccc(Cl)cc2Cl)cc1` [CBK261536], 104%. On to `CCCC(=O)Nc1cccc(NC(=O)c2nc[nH]n2)c1` [CBK269604], for which the viability at 28.5 h, 10 µM stood at 104%. `COc1nc(N)nc2c1ncn2C1CC(O)C(CO)O1` (stereo not drawn) [CBK201314]: the viability at 28.5 h, 10 µM was 89.4%.

Take `C=CCOC(=O)C1=C(C)OC(N)=C(C(=O)OCc2ccccc2)C12C(=O)Nc1ccccc12` (stereo not drawn) [CBK262527]: the viability at 28.5 h, 10 µM is 90.9%.

As for `N#C/C(=C\c1ccc(N2CCN(c3ccc(F)cc3)CC2)c([N+](=O)[O-])c1)c1nn(-c2ccccc2)c(N)c1C#N` [CBK267927], the viability at 28.5 h, 10 µM was found to be 95.7%. To `COC(=O)[C@@H]1CN(C(=O)Nc2ccccc2)CCN1S(C)(=O)=O` [CBK289611] belongs 96.9%.

Consider `COc1ccc(S(=O)(=O)NC(CCSC)c2nnc3ccccn23)cc1` (stereo not drawn) [CBK304402], for which the viability at 28.5 h, 10 µM was 109%. As for `COc1ccc2sc(Br)c(C(=O)O)c2c1` [CBK019180], the figure is 103%. As for `COc1ccc(CN2CCOC(C(=O)O)C2)cc1Cn1cncn1` (stereo not drawn) [CBK306919], the figure is 120%; as for `CN1CCN(S(=O)(=O)c2ccc(Oc3ccc([N+](=O)[O-])cc3)cc2)CC1` [CBK262248], 105%; as for `COc1ccc(NC(=O)c2ccc(CN3CCOCC3)cc2)c(OC)c1` [CBK263790], 91.4%.

In the case of `COc1cc(CN2CCN(Cc3ccncc3)CC2)cc(OC)c1O` [CBK263401], the viability at 28.5 h, 10 µM was determined as 80.6%. As for `Cc1cccc(CC(=O)N2CCC(Cc3ccccc3-c3ccccc3)(C(N)=O)CC2)c1` [CBK285731], the figure is 103%; as for `O=C(O)c1cccc(NC(=O)c2cnc(-c3cccc(C(F)(F)F)c3)c(-c3cccc(CO)c3)c2)c1` [CBK037565], 96%; as for `O=C(NCc1csc(-c2ccccc2)n1)C1CC=CCC1` (stereo not drawn) [CBK092348], 94.4%.

`CCOc1ccc(NC(=O)C2C3C=CC(O3)C2C(=O)O)cc1` (stereo not drawn) [CBK261592]: the viability at 28.5 h, 10 µM was determined as 91.7%. To `O=C(O)COc1ccc(N2C(=O)c3ccc(Oc4cccc([N+](=O)[O-])c4)cc3C2=O)cc1` [CBK264259] belongs 107%; to `COCCOCC(C)NC(=O)COc1nn(C)c2nc(C)cc(C)c12` (stereo not drawn) [CBK305177], 105%; to `N#CCCCN1CCC(Oc2nccnc2OCc2cccc(C(F)(F)F)c2F)CC1` [CBK153646], 100%. As for `C[C@H](Nc1cncc(-c2ccccc2CO)n1)c1ccccc1` [CBK065520], the figure is 116%.

Regarding `COc1ccc(S(=O)(=O)NCCNC(=O)c2cc(Br)cnc2N(C)S(C)(=O)=O)cc1` [CBK076477], the viability at 28.5 h, 10 µM was found to be 110%.

As to `Cc1ccc(N(CC(=O)Nc2cccnc2)S(=O)(=O)c2ccc(F)cc2)cc1` [CBK263332], the viability at 28.5 h, 10 µM came to 93.8%. As for `CC(=O)Nc1ccc(S(=O)(=O)Nc2nnc(C(C)(C)C)s2)cc1` [CBK045499], the figure is 100%; as for `O=C(Cn1nc(C(F)(F)F)c2cccn2c1=O)NC1CCCC1` [CBK282867], 90.2%; as for `Cc1ccc(C)c(C(=O)C2=C(O)C(=O)N(CCCN3CCOCC3)C2c2cccc([N+](=O)[O-])c2)c1` (stereo not drawn) [CBK265503], 86.2%. As for `COCCSc1nnc(NS(=O)(=O)c2ccc(F)cc2)s1` [CBK144919], the viability at 28.5 h, 10 µM came out at 87.1%. To `COc1cccc(C(=O)COC(=O)c2cc(-c3ccccc3)nc3ccc(Br)cc23)c1` [CBK265143] belongs 94.4%; to `COC(=O)c1cc(Br)ccc1NC(=O)COc1ccccc1C` [CBK263715], 89.4%. As for `C[C@H]1[C@@H]2[C@@H](O)C([C@H](C)C(=O)N3CCCCC3)CC[C@@]2(C)CC[C@@H]1NC(=O)c1cnccn1` (stereo partly drawn) [CBK289448], the figure is 111%; as for `CCCSc1nc2c(c(=O)[nH]1)C(c1ccncc1)C1=C(CCCC1=O)N2` (stereo not drawn) [CBK287606], 106%. As to `O=C(NCCc1nc2ccccc2[nH]1)c1cccc(Cl)c1` [CBK263514], the viability at 28.5 h, 10 µM worked out at 100%. `CC1CCc2nn(CCNC(=O)Cc3cccs3)c(=O)cc2C1` (stereo not drawn) [CBK284465]: the viability at 28.5 h, 10 µM amounted to 88.8%. To `Cc1nnsc1C(=O)Nc1ncn(CC(=O)N2CCCCCC2)n1` [CBK305522] belongs 96.9%; to `CN(CCCN1CCC(C(=O)NC(c2cccnc2)c2ccc3c(c2)OCO3)CC1)S(C)(=O)=O` (stereo not drawn) [CBK148505], 93.1%. To `CC(C)[C@@H](CO)Nc1cncc(-c2ccc(F)cc2F)n1` [CBK065875] belongs 98.5%; to `CCc1nn(CC(=O)N2CCCCCC2)c(=O)c2cc3occc3n12` [CBK283677], 86.9%; to `OCCC1CCCCN1c1cncc(-c2cccc(Cl)c2)n1` (stereo not drawn) [CBK037906], 108%. To `CS(=O)(=O)N(CC(=O)Nc1ccc(S(=O)(=O)N2CCCCC2)cc1)c1ccc2c(c1)OCO2` [CBK268189] belongs 96.4%. As to `CCN1CCCC(NC(=O)COc2nn(C)c3nc(C)cc(C)c23)C1` (stereo not drawn) [CBK305224], the viability at 28.5 h, 10 µM came out at 113%. As for `CCCOc1ccc(C(=O)N2CCN(c3ccccc3)CC2)cc1` [CBK304327], the figure is 90.7%; as for `CCOc1ccc(S(=O)(=O)N2CCN(S(=O)(=O)c3cccc([N+](=O)[O-])c3)CC2)cc1` [CBK266341], 95.9%; as for `Cc1ccc(-n2c(C)c(C)c3c(NCCO)cnnc32)cc1` [CBK288162], 101%. With `O=C(O)CCC(=O)Nc1ccc2c(c1)oc1ccccc12` [CBK261597], the viability at 28.5 h, 10 µM is 86.3%.

Consider `CC(=O)Nc1ccc(-c2cncc(Nc3ccc(C#N)cc3)n2)cc1` [CBK066009], for which the viability at 28.5 h, 10 µM was 97.5%. For the compound `O=C(O)c1cc(S(=O)(=O)N2CCCCC2)c(Cl)cc1N1CCCCC1` [CBK263408], the viability at 28.5 h, 10 µM amounted to 93.5%. Regarding `Cc1nn(CCC#N)c(C)c1CCC(=O)NCc1cn2ccccc2n1` [CBK304540], the viability at 28.5 h, 10 µM was 88.1%. For `CC(=O)N[C@@H](Cc1c[nH]cn1)C(=O)Nc1cc2ccccc2c(Br)n1` [CBK063302], the viability at 28.5 h, 10 µM stood at 91.3%. As for `CCN1CC(C(=O)N2CCCC(CN(C)C)C2)CC1=O` (stereo not drawn) [CBK282064], the viability at 28.5 h, 10 µM was 106%.

In the case of `Cc1ccc(C)c2c1c1nc3ccccc3nc1n2Cc1nnc(-c2ccccc2)o1` [CBK268677], the viability at 28.5 h, 10 µM came out at 104%. As for `CCn1ncnc1CN1CCN(C2Cc3ccccc3C2)CC1` [CBK304401], the figure is 101%; as for `O=C(CSc1ccc(-n2ccnc2)nn1)Nc1cccnc1` [CBK287635], 97.6%. Take `O=C1CNC(=O)C2(C/C=C/C[C@H]3COCC[C@@H]3N1)CCN(C(=O)CCc1cccnc1)CC2` [CBK292051]: the viability at 28.5 h, 10 µM worked out at 107%. As for `O=C(Nc1ccc(N2CCNCC2)nc1)c1cnccn1` [CBK029436T], the figure is 126%; as for `O=C(O)CC1(CNC(=O)Cn2nc(-c3ccccc3)ccc2=O)CCCCC1` [CBK286866], 84.1%. To `CC1(C)CC(=O)C=C(C(=O)NCc2ccc(OC3CCNCC3)cc2)O1` [CBK038948T] belongs 96.1%; to `COCc1nnc(Sc2nccnc2N2CCCC2)s1` [CBK093736], 95.4%. As for `COc1ccc2ccccc2c1CNc1ccc(N2CCOCC2)c(C(=O)O)c1` [CBK269376], the figure is 94.1%; as for `O=C(CN1CCC(c2ccc(F)cc2)CC1)N1CCCC1` [CBK283502], 98.7%; as for `Oc1c(Cl)cc(Cl)cc1/C=N/c1ccc(-c2nc3ccc(/N=C/c4cc(Cl)cc(Cl)c4O)cc3[nH]2)cc1` [CBK261660], 93.4%.

Take `O=C(N/N=C\c1ccc([N+](=O)[O-])o1)c1nc(-c2ccccc2)cc(-c2ccccc2)n1` [CBK261958]: the viability at 28.5 h, 10 µM was determined as 95.5%.

Regarding `COc1ccc(C(O)CNC(C)C)c2c(C)c(C)oc12` (stereo not drawn) [CBK011885C], the viability at 28.5 h, 10 µM was found to be 97%.

Consider `O=C(c1ccccc1F)[C@H]1CCCN(C(=O)c2cc(C3CC3)n[nH]2)C1` [CBK284330], for which the viability at 28.5 h, 10 µM came to 80%. Regarding `COc1ccccc1NCc1c(O)c(Br)cc2oc3c(c12)CCCC3` [CBK160398], the viability at 28.5 h, 10 µM was 93.4%. On to `CCN1CCCC1CN(Cc1cccs1)CC1CCOC1` (stereo not drawn) [CBK282602], for which the viability at 28.5 h, 10 µM amounted to 97.1%. As for `O=C(CN(c1cc(C(F)(F)F)ccc1Cl)S(=O)(=O)c1ccccc1)NCc1cccnc1` [CBK264607], the viability at 28.5 h, 10 µM was 94.4%. In the case of `O=C1c2ccc(-c3nc4ccc(Cl)cc4c(=O)o3)cc2C(=O)N1Cc1cccnc1` [CBK268460], the viability at 28.5 h, 10 µM came out at 104%.

With `O=C1CCC(=O)N1CCOc1nccnc1N1CCN(CCc2ccccn2)CC1` [CBK084309], the viability at 28.5 h, 10 µM was 109%. To `CCn1cc(CN2CCC(O)(c3ccc(C)cc3)CC2)c(C)n1` [CBK282955] belongs 89.2%; to `CCC(C(=O)N1CCC(C(=O)c2cccnc2)CC1)c1ccccc1` (stereo not drawn) [CBK283525], 91.1%; to `CC(C)c1ccc(OCC(=O)NCc2ccccn2)c(Br)c1` [CBK265910], 99.2%. As for `CC1CCCCN1S(=O)(=O)c1ccc(-n2ncc(Cl)c(Cl)c2=O)cc1` (stereo not drawn) [CBK305035], the figure is 90.6%. As for `Cn1cc(C(=O)NC(Cc2ccsc2)c2nccs2)ccc1=O` (stereo not drawn) [CBK285140], the figure is 98.5%; as for `CN1CCN(C2c3ccccc3Oc3ccccc32)CC1` [CBK066891], 93%.

For orientation: viability means a read-out of living cells in per cent, often relative to untreated cells.
